Tests used:
JAK 2 = JAK 2 (Homo sapiens, UniProt O60674); assay: Biochemical potency on JAK2, TR-FRET LANCE Ultra kinase assay (examples 1-99); settings: ATP at Km (0.7 μM), read-out: JAK2 inhibitory activity (pIC50 class) (converted)
Method: (§1) The objective of this study was to assess the capability of compounds to inhibit all 4 JAK isoforms activity in a cell-free environment. Assay for JAK 1, JAK 2, JAK 3 and TYK2 were performed by Time-resolved fluorescence resonance energy transfer (TR-FRET) technology. It consists in the interaction of two labelled binding partners detected by the energy transfer from an excited donor to an acceptor dye and measurement of light emission by the acceptor dye. LANCE Ultra kinase assay was used. In presence of JAK 1, JAK 2, JAK 3 and TYK2 kinases and ATP (corresponding to Km), the ULight peptide substrate (LANCE Ulight-JAK-1 (Tyr1023) Peptide, Perkin Elmer, TRF0121) is phosphorylated. It is then captured by Eu-anti-phospho-substrate antibody (LANCE Eu-W1024 Anti-phosphotyrosine (PT66), Perkin Elmer, AD0069), which bring the Eu-chelate donor and ULight acceptor dyes into close proximity. Upon excitation at 320 nm, the Eu-chelate transfers its energy to the ULight dye, resulting in a fluorescent light emission at 665 nm.
(§2) Serial dilutions of compounds in pure DMSO are prepared from 10 mM DMSO stock solutions. Compounds were tested in 384-well plate for 11 consecutive 5-fold dilutions starting from 20 μM highest concentration (20 μM-[…]). 200 nL of compound were transferred from mother plate to test plate by using Mosquito (TTP labtech). Assay was performed in 384-well Perkin Elmer test plate in 20 μL assay volume (kinase reaction) and 40 μL total volume (stopping reagent and antibody detection reagents). In 10 μL of substrate solution (peptide+ATP) 30/50/20/10 nM of peptide and 20/0.7/0.2/12 μM of ATP were added for JAK 1, JAK 2, JAK 3 and TYK2 respectively. 10 μL of enzyme solution was added to kinase reaction at these concentrations: 0.15/0.083/0.025/0.144 ng/μL of JAK 1, JAK 2, JAK 3 and TYK2 respectively. After shaking and 1.5 h of incubation at r.t., 20 μL of Stop (10 μL EDTA) and Detection mixture (10 μL Europium-anti-phospho antibody, final: 0.5 nM) were added. Reading was performed after 1 h of incubation on a EnVision 2104 reader (Perkin Elmer).
(§3) Calculation of IC50 data, curves and QC analysis was performed by using Excel tool and GraphPadPrism software, v9. Briefly, individual concentration-effect curves are generated by plotting the logarithm of the tested concentration of tested compounds (X) vs. corresponding percent inhibition values (Y) using least squares (ordinary) fit. Best fit IC50 values are calculated using Log(inhibitor) vs. normalized response—Variable slope equation, where Y=100/(1+10^((Log IC50−X)*HillSlope)). QC criteria parameters (Z′, S:B, R2, HillSlope) were checked for every IC50 curve. Calculation of IC50 data, curves and QC analysis were made using Excel tools and GraphPadPrism software. QC criteria parameters: Z′≥0.5, Hill Slope range 0.5 to 5, S:B>2.

JAK 3 = target: T1, JAK 3 (Homo sapiens, UniProt P52333); assay: Biochemical potency on JAK3, TR-FRET LANCE Ultra kinase assay (examples 1-99); settings: ATP at Km (0.2 μM), read-out: JAK3 inhibitory activity (pIC50 class) (converted)
T1 sequence (P52333 1-1124): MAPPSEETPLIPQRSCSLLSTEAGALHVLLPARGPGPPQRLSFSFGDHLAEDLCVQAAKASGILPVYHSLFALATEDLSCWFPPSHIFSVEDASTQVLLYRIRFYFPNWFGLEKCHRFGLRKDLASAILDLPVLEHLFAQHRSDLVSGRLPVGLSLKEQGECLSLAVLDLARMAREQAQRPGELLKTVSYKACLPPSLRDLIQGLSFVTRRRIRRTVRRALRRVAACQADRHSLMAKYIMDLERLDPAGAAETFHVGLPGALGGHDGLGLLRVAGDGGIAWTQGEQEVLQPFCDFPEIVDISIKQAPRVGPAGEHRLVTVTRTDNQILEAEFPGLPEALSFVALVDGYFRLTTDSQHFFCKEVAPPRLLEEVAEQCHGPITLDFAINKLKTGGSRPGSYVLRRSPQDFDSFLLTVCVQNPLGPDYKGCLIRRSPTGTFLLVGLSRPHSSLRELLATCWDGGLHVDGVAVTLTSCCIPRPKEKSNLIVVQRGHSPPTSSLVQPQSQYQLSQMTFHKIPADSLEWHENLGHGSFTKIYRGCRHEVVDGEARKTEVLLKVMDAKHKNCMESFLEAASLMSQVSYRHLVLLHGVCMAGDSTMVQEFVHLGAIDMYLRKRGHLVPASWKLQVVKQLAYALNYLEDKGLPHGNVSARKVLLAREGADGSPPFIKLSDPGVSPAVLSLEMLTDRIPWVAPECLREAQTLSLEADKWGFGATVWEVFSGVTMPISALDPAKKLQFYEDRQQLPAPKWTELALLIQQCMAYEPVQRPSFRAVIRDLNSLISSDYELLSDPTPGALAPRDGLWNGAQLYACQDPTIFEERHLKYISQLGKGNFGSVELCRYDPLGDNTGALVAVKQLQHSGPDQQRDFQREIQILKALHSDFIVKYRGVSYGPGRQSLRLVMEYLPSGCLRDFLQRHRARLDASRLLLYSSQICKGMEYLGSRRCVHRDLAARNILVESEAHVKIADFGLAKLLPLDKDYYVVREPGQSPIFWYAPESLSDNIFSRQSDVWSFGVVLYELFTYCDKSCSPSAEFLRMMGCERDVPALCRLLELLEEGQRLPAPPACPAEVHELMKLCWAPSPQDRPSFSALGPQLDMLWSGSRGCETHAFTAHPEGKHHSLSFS
Method: as §1, §2, §3

JAK 1 = JAK 1 (Homo sapiens, UniProt P23458); assay: Biochemical potency on JAK1, TR-FRET LANCE Ultra kinase assay (examples 1-99); settings: ATP at Km (20 μM), read-out: JAK1 inhibitory activity (pIC50 class) (converted)
JAK 1, sequence (P23458 whole entry): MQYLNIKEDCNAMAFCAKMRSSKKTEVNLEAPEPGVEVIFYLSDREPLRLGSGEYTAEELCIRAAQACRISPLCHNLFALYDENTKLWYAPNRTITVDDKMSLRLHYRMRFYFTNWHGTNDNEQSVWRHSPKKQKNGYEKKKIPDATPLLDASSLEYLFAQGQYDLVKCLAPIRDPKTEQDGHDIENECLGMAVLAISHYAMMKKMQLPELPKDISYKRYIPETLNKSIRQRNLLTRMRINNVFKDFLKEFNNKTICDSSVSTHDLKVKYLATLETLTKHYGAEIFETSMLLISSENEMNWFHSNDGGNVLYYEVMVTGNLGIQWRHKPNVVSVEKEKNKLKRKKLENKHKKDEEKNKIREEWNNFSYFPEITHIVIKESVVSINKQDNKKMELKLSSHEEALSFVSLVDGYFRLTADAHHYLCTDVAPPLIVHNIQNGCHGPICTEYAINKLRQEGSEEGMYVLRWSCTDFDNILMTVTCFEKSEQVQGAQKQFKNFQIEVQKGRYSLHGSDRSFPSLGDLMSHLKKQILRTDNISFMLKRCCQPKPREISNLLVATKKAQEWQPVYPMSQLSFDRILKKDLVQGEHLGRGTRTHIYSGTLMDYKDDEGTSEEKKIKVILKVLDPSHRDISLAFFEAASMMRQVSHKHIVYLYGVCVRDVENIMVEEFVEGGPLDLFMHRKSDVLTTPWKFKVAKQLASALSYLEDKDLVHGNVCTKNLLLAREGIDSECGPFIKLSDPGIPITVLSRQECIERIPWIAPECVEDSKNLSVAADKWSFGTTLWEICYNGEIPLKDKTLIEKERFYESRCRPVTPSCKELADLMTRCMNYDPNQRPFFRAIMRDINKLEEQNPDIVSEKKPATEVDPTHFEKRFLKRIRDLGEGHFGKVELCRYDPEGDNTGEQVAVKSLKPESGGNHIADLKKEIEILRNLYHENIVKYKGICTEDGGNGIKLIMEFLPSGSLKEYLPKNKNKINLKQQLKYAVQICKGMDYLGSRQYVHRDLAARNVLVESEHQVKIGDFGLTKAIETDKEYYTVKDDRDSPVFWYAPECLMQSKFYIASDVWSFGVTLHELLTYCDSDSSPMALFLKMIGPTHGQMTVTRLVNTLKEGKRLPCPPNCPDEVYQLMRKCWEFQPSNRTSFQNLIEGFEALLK
Method: as §1, §2, §3

TYK2 = TYK2 (Homo sapiens, UniProt P29597); assay: Biochemical potency on Tyk2, TR-FRET LANCE Ultra kinase assay (examples 1-99); settings: ATP at Km (12 μM), read-out: Tyk2 inhibitory activity (pIC50 class) (converted)
TYK2, sequence (P29597 whole entry): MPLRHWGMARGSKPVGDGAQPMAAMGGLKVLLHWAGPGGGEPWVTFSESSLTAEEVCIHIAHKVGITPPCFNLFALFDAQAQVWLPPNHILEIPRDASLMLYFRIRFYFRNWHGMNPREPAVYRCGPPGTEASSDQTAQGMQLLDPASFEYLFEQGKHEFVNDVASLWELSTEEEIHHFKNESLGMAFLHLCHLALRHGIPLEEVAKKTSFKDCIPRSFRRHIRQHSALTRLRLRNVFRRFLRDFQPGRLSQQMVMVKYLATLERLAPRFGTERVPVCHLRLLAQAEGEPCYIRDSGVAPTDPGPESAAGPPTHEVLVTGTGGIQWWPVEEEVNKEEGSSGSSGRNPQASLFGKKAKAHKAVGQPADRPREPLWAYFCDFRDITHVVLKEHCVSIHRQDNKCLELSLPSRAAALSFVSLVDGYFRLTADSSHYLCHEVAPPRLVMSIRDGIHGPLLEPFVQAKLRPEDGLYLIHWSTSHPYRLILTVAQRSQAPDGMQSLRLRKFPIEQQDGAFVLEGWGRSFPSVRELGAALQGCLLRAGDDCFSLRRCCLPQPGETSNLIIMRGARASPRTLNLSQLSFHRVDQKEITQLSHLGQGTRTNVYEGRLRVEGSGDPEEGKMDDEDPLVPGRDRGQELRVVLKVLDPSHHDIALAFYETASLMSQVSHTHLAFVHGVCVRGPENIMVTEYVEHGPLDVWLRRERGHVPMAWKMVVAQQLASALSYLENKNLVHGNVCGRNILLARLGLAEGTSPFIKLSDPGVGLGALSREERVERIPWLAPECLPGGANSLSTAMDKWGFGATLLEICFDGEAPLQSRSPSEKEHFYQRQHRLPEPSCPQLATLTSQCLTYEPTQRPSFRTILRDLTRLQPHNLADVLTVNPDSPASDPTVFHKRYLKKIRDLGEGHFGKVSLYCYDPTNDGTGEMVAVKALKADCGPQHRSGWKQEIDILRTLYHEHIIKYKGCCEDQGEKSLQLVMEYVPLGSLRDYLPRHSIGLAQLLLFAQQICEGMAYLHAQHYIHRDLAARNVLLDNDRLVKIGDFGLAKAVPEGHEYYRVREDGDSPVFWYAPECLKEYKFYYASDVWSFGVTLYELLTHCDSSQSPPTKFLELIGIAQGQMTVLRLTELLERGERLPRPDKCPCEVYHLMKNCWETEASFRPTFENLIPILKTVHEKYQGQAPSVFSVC
Method: as §1, §2, §3

JAK 2, sequence (O60674 whole entry, canonical isoform): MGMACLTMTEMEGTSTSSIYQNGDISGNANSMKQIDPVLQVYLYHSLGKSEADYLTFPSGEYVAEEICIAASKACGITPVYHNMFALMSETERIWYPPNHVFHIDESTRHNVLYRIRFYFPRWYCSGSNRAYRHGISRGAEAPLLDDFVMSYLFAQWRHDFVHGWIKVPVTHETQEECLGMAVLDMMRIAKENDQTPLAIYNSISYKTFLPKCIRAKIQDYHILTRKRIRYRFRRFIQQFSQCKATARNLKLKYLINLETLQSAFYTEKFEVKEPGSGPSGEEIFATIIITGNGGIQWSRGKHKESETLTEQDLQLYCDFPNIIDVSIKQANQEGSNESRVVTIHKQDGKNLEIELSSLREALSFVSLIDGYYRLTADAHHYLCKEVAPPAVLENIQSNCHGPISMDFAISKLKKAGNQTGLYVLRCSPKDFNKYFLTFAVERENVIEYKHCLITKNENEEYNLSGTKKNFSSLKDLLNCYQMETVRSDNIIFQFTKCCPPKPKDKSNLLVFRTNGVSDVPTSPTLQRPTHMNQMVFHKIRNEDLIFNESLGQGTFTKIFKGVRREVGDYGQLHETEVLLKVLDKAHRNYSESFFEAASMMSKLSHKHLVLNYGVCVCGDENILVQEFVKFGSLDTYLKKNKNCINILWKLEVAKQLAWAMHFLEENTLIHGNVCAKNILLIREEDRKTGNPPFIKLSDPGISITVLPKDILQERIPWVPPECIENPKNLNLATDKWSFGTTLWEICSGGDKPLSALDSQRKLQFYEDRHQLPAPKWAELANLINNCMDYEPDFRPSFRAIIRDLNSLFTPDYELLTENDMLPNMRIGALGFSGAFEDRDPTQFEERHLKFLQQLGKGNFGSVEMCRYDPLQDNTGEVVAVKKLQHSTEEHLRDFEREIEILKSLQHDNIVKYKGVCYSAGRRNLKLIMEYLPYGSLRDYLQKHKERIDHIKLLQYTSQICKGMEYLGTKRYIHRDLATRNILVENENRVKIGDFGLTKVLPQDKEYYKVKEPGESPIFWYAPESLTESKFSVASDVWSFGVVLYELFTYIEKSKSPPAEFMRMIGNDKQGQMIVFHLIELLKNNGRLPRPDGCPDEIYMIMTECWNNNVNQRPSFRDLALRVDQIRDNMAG

IC50 (JAK 2) | IC50 (JAK 3) | IC50 (JAK 1) | IC50 (TYK2) | Structure (SMILES)
≤ 5.01 nM | ≤ 5.01 nM | 5.01 to 50.1 nM | 5.01 to 50.1 nM | Cc1nn(-c2cc(C#N)ccc2OC(F)F)c2cc(-c3cnn4cccnc34)ncc12 [Example 64, 4-(difluoromethoxy)-3-(3-methyl-6-(pyrazolo[1,5-a]pyrimidin-3-yl)-1H-pyrazolo[4,3-c]pyridin-1-yl)benzonitrile]
≤ 5.01 nM | 5.01 to 50.1 nM | ≤ 5.01 nM | 5.01 to 50.1 nM | COc1ccc(Cl)cc1-n1nc(C)c2cnc(-c3cnn4cccnc34)cc21 [Example 2, 1-(5-chloro-2-methoxyphenyl)-3-methyl-6-(pyrazolo[1,5-a]pyrimidin-3-yl)-1H-pyrazolo[4,3-c]pyridine]
≤ 5.01 nM | 5.01 to 50.1 nM | 5.01 to 50.1 nM | > 50.1 nM | COc1cc(O)ccc1-n1nc(C)c2cnc(-c3cnn4cccnc34)cc21 [Example 27, 3-methoxy-4-(3-methyl-6-(pyrazolo[1,5-a]pyrimidin-3-yl)-1H-pyrazolo[4,3-c]pyridin-1-yl)phenol]
≤ 5.01 nM | 5.01 to 50.1 nM | 5.01 to 50.1 nM | 5.01 to 50.1 nM | COc1ccc(C(F)F)cc1-n1nc(NCCN(C)C)c2cnc(-c3cnn4cccnc34)cc21 [Example 44, N1-(1-(5-(difluoromethyl)-2-methoxyphenyl)-6-(pyrazolo[1,5-a]pyrimidin-3-yl)-1H-pyrazolo[4,3-c]pyridin-3-yl)-N2,N2-dimethylethane-1,2-diamine]
≤ 5.01 nM | ≤ 5.01 nM | 5.01 to 50.1 nM | 5.01 to 50.1 nM | COCCS(=O)(=O)c1ccc(OC(F)F)c(-n2nc(C)c3cnc(-c4cnn5cccnc45)cc32)c1 [Example 20, 1-(2-(difluoromethoxy)-5-((2-methoxyethyl)sulfonyl)phenyl)-3-methyl-6-(pyrazolo[1,5-a]pyrimidin-3-yl)-1H-pyrazolo[4,3-c]pyridine]
5.01 to 50.1 nM | 5.01 to 50.1 nM | 5.01 to 50.1 nM | > 50.1 nM | COc1ccc(S(C)(=O)=O)cc1-n1nc(C(=O)NCCCN(C)C)c2cnc(-c3cnn4cccnc34)cc21 [Example 83, N-(3-(dimethylamino)propyl)-1-(2-methoxy-5-(methylsulfonyl)phenyl)-6-(pyrazolo[1,5-a]pyrimidin-3-yl)-1H-pyrazolo[4,3-c]pyridine-3-carboxamide]
≤ 5.01 nM | ≤ 5.01 nM | 5.01 to 50.1 nM | 5.01 to 50.1 nM | CSc1ccc(OC(F)F)c(-n2nc(NCCCN(C)C)c3cnc(-c4cnn5cccnc45)cc32)c1 [Example 46, N1-(1-(2-(difluoromethoxy)-5-(methylthio)phenyl)-6-(pyrazolo[1,5-a]pyrimidin-3-yl)-1H-pyrazolo[4,3-c]pyridin-3-yl)-N3,N3-dimethylpropane-1,3-diamine]
5.01 to 50.1 nM | ≤ 5.01 nM | 5.01 to 50.1 nM | 5.01 to 50.1 nM | Cc1ccc(OC(F)F)c(-n2nc(C)c3cnc(-c4cnn5cccnc45)cc32)c1 [Example 65, 1-(2-(difluoromethoxy)-5-methylphenyl)-3-methyl-6-(pyrazolo[1,5-a]pyrimidin-3-yl)-1H-pyrazolo[4,3-c]pyridine]
≤ 5.01 nM | ≤ 5.01 nM | ≤ 5.01 nM | 5.01 to 50.1 nM | Cc1nn(-c2cc(Cl)ccc2OC(F)F)c2cc(-c3cnn4cccnc34)ncc12 [Example 11, 1-(5-chloro-2-(difluoromethoxy)phenyl)-3-methyl-6-(pyrazolo[1,5-a]pyrimidin-3-yl)-1H-pyrazolo[4,3-c]pyridine]
≤ 5.01 nM | ≤ 5.01 nM | 5.01 to 50.1 nM | 5.01 to 50.1 nM | COc1cccc(S(=O)(=O)c2ccc(OC(F)F)c(-n3nc(C)c4cnc(-c5cnn6cccnc56)cc43)c2)c1 [Example 25, 1-(2-(difluoromethoxy)-5-((3-methoxyphenyl)sulfonyl)phenyl)-3-methyl-6-(pyrazolo[1,5-a]pyrimidin-3-yl)-1H-pyrazolo[4,3-c]pyridine]
